Results as given in patent US20090192192A1, “INHIBITORS OF BIOFILM FORMATION OF GRAM-POSITIVE AND GRAM-NEGATIVE BACTERIA” (priority 2007, published 2009).

Tested on: Pseudomonas aeruginosa PAO1
Assay: MBEC assay, biofilm formation of P. aeruginosa PAO1
Type: cell-based
Details: compound concentration 100 μM, class symbols
Description: The compound to be tested was dissolved in DMSO to obtain a concentration that was 100 times that of the final concentration required (1 mM for the 10 μM assay and 10 mM for the 100 μM assay). 1.5 μL of the above solution was placed into each well of a 96 well plate (final volume in each well=150 μL, final DMSO concentration of 1% (v/v)).
To grow the organism and form a biofilm, a cryogenic stock of the test organism (at −70° C.) was used. A first sub-culture was streaked out onto TSA (tryptic soy agar), upon which the plate was incubated at 35±2° C. for 24 hours and stored wrapped in parafilm at 4° C. afterwards. From this first sub-culture, a second sub-culture was streaked out onto TSA. The plate was incubated at 35±2° C. for 24 hours. The second sub-culture was used within 24 hours starting from the time it was first removed from incubation. Using the second sub-culture an inoculum in 3 mL sterile water that matches a 0.5 McFarland Standard (1.5×10^8 cells per mL) was created in a glass test tube using a sterile cotton swab. 2.2 mL of this solution was diluted in 22 mL 100% TSB (tryptic soy broth) medium to a cell density of approximately […]. The diluted organism was inverted 3-5 times to achieve uniform mixing of the organism. One sample (100 μl) of the diluted organism was used for an inoculum check by serially diluting and spot plating on TSA.
To prepare a challenge plate, […] of the diluted organism was added to each well of a 96 well plate except the sterility control wells. The test compounds were added to the wells to make up final concentrations of 10 μM and […] (1.5 μL/well) in the designated location in the test plate. 128.5 μL of 100% universal neutralizer (1% Tween 80 in Cation Adjusted Mueller Hinton Broth, CAMHB) was placed in each of the wells. 130 μL of media was added to the growth control wells. 128.5 μL of media+1.5 μL of DMSO were added to a second set of growth control wells. 150 μL of media was added to the sterility controls. Each sample was run in triplicate. The plate was covered by a lid with a peg per well and wrapped in parafilm and placed on a shaker in a humidified incubator (GeneVac) at 35±+2° C. for 24 hours set at 110 rpm.
Rinse plate(s) of 0.9% saline (200 μL per well) were prepared in a sterile 96 well microtitre plate. Lid-associated pegs were rinsed in 0.9% saline for approximately 1-2 minutes. The peg lid was transferred to the recovery media (1.0% Tween 80 in CAMHB) then sonicated for 30 minutes to dislodge surviving biofilm. Following sonication, 100 μL from each well of the 96 well plate was placed into the first 12 wells of the first row of a 96 well microtiter plate. 180 μl of 0.9% sterile saline was placed in the remaining rows. A serial dilution (10^0-10^7) was prepared by moving 20 μl down each of the 8 rows. 20 μl from each well was removed and spot plated on a prepared TSA. In the remaining recovery plate, 100 μl of fresh growth media (1.0% Tween 80 in CAMHB) was placed in each well to replace the amount removed. The recovery plate was covered with a regular lid and incubated at 35±2° C. for 24 hours and read visually to confirm antimicrobial activity of the test compounds.
The compounds of the present disclosure have been tested regarding their efficiency to inhibit biofilm formation of Staphylococcus aureus U of C#18 (MRSA), Staphylococcus aureus 456 (MRSA), Staphylococcus epidermidis RP62A, and Pseudomonas aeruginosa PAO1.

Row | SMILES | inhibition at 100 µM [%]
1 | CCCCCCCCCOCC(=O)Nc1cc(-c2ccccc2)nn1C [Example 108, N-(1-methyl-3-phenylpyrazol-5-yl)-2-(nonyloxy)acetamide] | > 50
2 | CCCCCCCCCOCC(=O)Nc1cc(C(C)(C)C)on1 [Example 109, N-(5-tert-butylisoxazol-3-yl)-2-(nonyloxy)acetamide] | 20 to 50
3 | CCCCCCCCCOCC(=O)Nc1nnc(-c2ccccc2)s1 [Example 110, 2-(nonyloxy)-N-(5-phenyl-1,3,4-thiadiazol-2-yl)acetamide] | < 20
4 | CCCCCCCCCOCC(=O)N[C@H]1CCOC1=O [Example 111, N-(2-nonyloxyacetyl)-L-homoserinelactone] | < 20
5 | CCCCCCCCOCCC(=O)N[C@H]1CCOC1=O [Example 112, N-(3-octyloxypropanoyl)-L-homoserinelactone] | < 20
6 | CCCCCCCCOCCC(=O)N[C@@H](C)c1ccccc1 [Example 113, (S)-3-(octyloxy)-N-(1-phenylethyl)propanamide] | > 50
7 | CCCCCCCCOCCC(=O)Nc1cc(C)nn1C [Example 114, N-(1,3-dimethylpyrazol-5-yl)-3-(octyloxy)propanamide] | 20 to 50
8 | CCCCCCCCOCCC(=O)Nc1cc(C2CC2)nn1C [Example 115, N-(3-cyclopropyl-1-methylpyrazol-5-yl)-3-(octyloxy)propanamide] | > 50
9 | CCCCCCCCOCCC(=O)Nc1cc(C(C)(C)C)nn1C [Example 116, N-(3-tert-butyl-1-methylpyrazol-5-yl)-3-(octyloxy)propanamide] | > 50
10 | CCCCCCCCOCCC(=O)Nc1cc(-c2ccccc2)nn1C [Example 117, N-(1-methyl-3-phenylpyrazol-5-yl)-3-(octyloxy)propanamide] | > 50
11 | CCCCCCCCOCCC(=O)Nc1nnc(-c2ccccc2)s1 [Example 118, 3-(octyloxy)-N-(5-phenyl-1,3,4-thiadiazol-2-yl)propanamide] | < 20
12 | CCCCOCCOCC(=O)N(C)c1ccc(F)cc1 [Example 119, 2-(2-butoxyethoxy)-N-(4-fluorophenyl)-N-methylacetamide] | < 20
13 | CCCCOCCOCC(=O)Nc1ccc(F)cc1C(F)(F)F [Example 120, 2-(2-butoxyethoxy)-N-(4-fluoro-2-(trifluoromethyl)phenyl)acetamide] | 20 to 50
14 | CCCCOCCOCC(=O)N[C@@H](C)c1ccccc1 [Example 121, (S)-2-(2-butoxyethoxy)-N-(1-phenylethyl)acetamide] | < 20
15 | CCCCOCCOCC(=O)Nc1cc(C)nn1C [Example 122, 2-(2-butoxyethoxy)-N-(1,3-dimethylpyrazol-5-yl)acetamide] | < 20
16 | CCCCOCCOCC(=O)Nc1cc(C)ns1 [Example 123, 2-(2-butoxyethoxy)-N-(3-methylisothiazol-5-yl)acetamide] | < 20
17 | CCCCOCCOCC(=O)Nc1cc(-c2ccccc2)nn1C [Example 124, 2-(2-butoxyethoxy)-N-(1-methyl-3-phenylpyrazol-5-yl)acetamide] | 20 to 50
18 | COCCOCCOCC(=O)N(C)c1ccc(F)cc1 [Example 125, N-(4-fluorophenyl)-2-(2-(2-methoxyethoxy)ethoxy)-N-methylacetamide] | < 20
19 | COCCOCCOCC(=O)Nc1ccc(F)cc1C(F)(F)F [Example 126, N-(4-fluoro-2-(trifluoromethyl)phenyl)-2-(2-(2-methoxyethoxy)ethoxy)acetamide] | < 20
20 | COCCOCCOCC(=O)N[C@@H](C)c1ccccc1 [Example 127, (S)-2-(2-(2-methoxyethoxy)ethoxy)-N-(1-phenylethyl)acetamide] | < 20
21 | COCCOCCOCC(=O)Nc1cc(C)nn1C [Example 128, N-(1,3-dimethylpyrazol-5-yl)-2-(2-(2-methoxyethoxy)ethoxy)acetamide] | < 20

Row | SMILES | inhibition at 100 µM [%]
22 | COCCOCCOCC(=O)Nc1cc(C)ns1 [Example 129, 2-(2-(2-methoxyethoxy)ethoxy)-N-(3-methylisothiazol-5-yl)acetamide] | < 20
23 | CCCCCCCCCCCC(=O)N1CCCC(C(N)=O)C1 (centres unmarked) [Example 130, 1-dodecanoylpiperidine-3-carboxamide] | > 50
24 | CCCCCCCCCCCC(=O)N1CCC(C(N)=O)CC1 [Example 131, 1-dodecanoylpiperidine-4-carboxamide] | 20 to 50
25 | CCCCCCCCCCCC(=O)N1CCCC(C(=O)NC)C1 (centres unmarked) [Example 132, 1-dodecanoyl-N-methylpiperidine-3-carboxamide] | > 50
26 | CCCCCCCCCCCC(=O)N1CCCC(C(=O)NCC)C1 (centres unmarked) [Example 133, 1-dodecanoyl-N-ethylpiperidine-3-carboxamide] | > 50
27 | CCCCCCCCCCCC(=O)N1CCCC(C(=O)NCC(C)C)C1 (centres unmarked) [Example 134, 1-dodecanoyl-N-isobutylpiperidine-3-carboxamide] | 20 to 50
28 | CCCCCCCCCC(=O)N1CCCC(C(=O)N(CC)CC)C1 (centres unmarked) [Example 135, 1-decanoyl-N,N-diethylpiperidine-3-carboxamide] | > 50
29 | CCCCCCCCCCCC(=O)N1CCCC(C(=O)N2CCCC2)C1 (centres unmarked) [Example 136, 1-(3-(pyrrolidine-1-carbonyl)piperidin-1-yl)dodecan-1-one] | < 20
30 | CCCCCCCCOCCC(=O)N1CCCC(C(=O)N(CC)CC)C1 (centres unmarked) [Example 137, N,N-diethyl-1-(3-(octyloxy)propanoyl)piperidine-3-carboxamide] | 20 to 50
31 | CCCCCCCN(C)CCCC(=O)N1CCCC(C(=O)N(CC)CC)C1 (centres unmarked) [Example 138, N,N-diethyl-1-(4-(heptyl(methyl)amino)butanoyl)piperidine-3-carboxamide] | < 20
32 | CCN(CC)C(=O)C1CCCN(C(=O)CCCCCCN(C)CCN(C)C)C1 (centres unmarked) [Example 139, 1-(7-((2-(dimethylamino)ethyl)(methyl)amino)heptanoyl)-N,N-diethylpiperidine-3-carboxamide] | < 20
33 | CCN(CC)C(=O)C1CCCN(C(=O)CCCCCCN2CCN(C)CC2)C1 (centres unmarked) [Example 140, N,N-diethyl-1-(7-(4-methylpiperazin-1-yl)heptanoyl)piperidine-3-carboxamide] | < 20
34 | CCN(CC)C(=O)C1CCCN(C(=O)CCCCCCCCCCCSC)C1 (centres unmarked) [Example 141, N,N-diethyl-1-(12-(methylthio)dodecanoyl)piperidine-3-carboxamide] | > 50
35 | CCN(CC)C(=O)C1CCCN(C(=O)CCCCCCCCCCCS(C)(=O)=O)C1 (centres unmarked) [Example 142, N,N-diethyl-1-(12-(methylsulfonyl)dodecanoyl)piperidine-3-carboxamide] | 20 to 50
36 | CCN(CC)C(=O)C1CCCN(C(=O)CCCCCCCCCNS(C)(=O)=O)C1 (centres unmarked) [Example 143, N,N-diethyl-1-(10-(methylsulfonamido)decanoyl)piperidine-3-carboxamide] | 20 to 50
37 | CCCCCCCCNC(=O)CC(=O)N1CCCC(C(=O)N(CC)CC)C1 (centres unmarked) [Example 144, N,N-diethyl-1-(3-(octylamino)-3-oxopropanoyl)piperidine-3-carboxamide] | 20 to 50
38 | CCCCCCCCCCCC(=O)N1CCC(C(N)=O)C1 (centres unmarked) [Example 145, 1-dodecanoylpyrrolidine-3-carboxamide] | > 50
39 | CCCCCCCCCCCC(=O)N1CCC(C(=O)NC)C1 (centres unmarked) [Example 146, 1-dodecanoyl-N-methylpyrrolidine-3-carboxamide] | > 50
40 | CCCCCCCCCCCC(=O)N1CCC(C(=O)N(C)C)C1 (centres unmarked) [Example 147, 1-dodecanoyl-N,N-dimethylpyrrolidine-3-carboxamide] | > 50
41 | CCCCCCCCCCCC(=O)N1CCC(C(=O)N(CC)CC)C1 (centres unmarked) [Example 148, 1-dodecanoyl-N,N-diethylpyrrolidine-3-carboxamide] | > 50
